Results published in patent US20120270237A9, “METHODS FOR THE IDENTIFICATION OF KINASE INTERACTING MOLECULES AND FOR THE PURIFICATION OF KINASE PROTEINS” (Cellzone AG, priority 2009, published 2012).

Key:
MLK3 = MLK3 (Homo sapiens, UniProt Q16584); assay: Kinobeads competition binding, HeLa Placenta lysate mix; parameters: capturing and identification of kinases from mixed HeLa placenta lysates; endogenous in cells; host or cells: mixed lysate of HeLa cells and placenta tissue; settings: 10 μM free compound
Experimental: (§1) To one aliquot of cell lysate 10 μM of the free compound (FIG. 3, CZC31326) was added and allowed to bind to proteins in the lysate. Then the affinity matrix with the immobilized compound was added to capture proteins that were not interacting with the previously added free compound. Beads were separated from the lysate and bead bound proteins were eluted in SDS sample buffer and subsequently separated by SDS-Polyacrylamide gel electrophoresis (FIG. 10). Suitable gel bands were cut out and subjected to in-gel proteolytic digestion with trypsin. The second lysate aliquot was processed identically, however no free compound was added (DMSO solvent control). Peptides originating from samples 1 and 2 were labeled with iTRAQ reagents (iTRAQ 114 and iTRAQ 117) and the combined samples were analyzed with a nano-flow liquid chromatography system coupled online to a tandem mass spectrometer (LC-MS/MS) experiment followed by iTRAQ reporter ion quantification in the MS/MS spectra as described in Example 2.

GCK = target: T1, GCK (Homo sapiens, UniProt Q12851); assay: as above; parameters: capturing and identification of kinases from mixed HeLa placenta lysates; endogenous in cells; host or cells: mixed lysate of HeLa cells and placenta tissue; settings: 10 μM free compound
T1 sequence (Q12851 1-820): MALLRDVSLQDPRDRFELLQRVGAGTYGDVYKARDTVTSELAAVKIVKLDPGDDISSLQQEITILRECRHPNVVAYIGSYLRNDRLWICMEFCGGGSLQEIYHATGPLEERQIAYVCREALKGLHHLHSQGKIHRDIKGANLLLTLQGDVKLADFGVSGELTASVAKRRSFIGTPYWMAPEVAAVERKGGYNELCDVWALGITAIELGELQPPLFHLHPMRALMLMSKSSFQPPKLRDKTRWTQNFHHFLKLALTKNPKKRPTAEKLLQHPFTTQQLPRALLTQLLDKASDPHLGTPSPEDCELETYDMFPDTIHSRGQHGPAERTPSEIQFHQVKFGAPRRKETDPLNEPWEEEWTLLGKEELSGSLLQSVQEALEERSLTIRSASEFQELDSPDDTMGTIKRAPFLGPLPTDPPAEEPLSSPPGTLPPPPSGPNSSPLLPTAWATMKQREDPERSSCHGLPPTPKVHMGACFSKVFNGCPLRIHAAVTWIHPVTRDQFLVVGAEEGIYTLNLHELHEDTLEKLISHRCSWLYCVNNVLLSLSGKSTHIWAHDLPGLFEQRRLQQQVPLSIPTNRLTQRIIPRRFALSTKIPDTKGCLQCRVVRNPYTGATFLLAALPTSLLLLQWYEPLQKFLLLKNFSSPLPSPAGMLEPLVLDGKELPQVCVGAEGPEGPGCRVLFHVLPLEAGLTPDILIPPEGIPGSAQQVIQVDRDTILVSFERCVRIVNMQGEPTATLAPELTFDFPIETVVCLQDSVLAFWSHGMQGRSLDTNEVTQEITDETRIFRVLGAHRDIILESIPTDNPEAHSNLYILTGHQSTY
Experimental: as §1

TBK1 = target: T2, TBK1 (Homo sapiens, UniProt Q9UHD2); assay: Kinobeads competition binding, L-363 cell lysate; parameters: capturing and identification of kinases from L-363 cell lysate; endogenous in cells; host or cells: L-363 (treated with MG132 before harvest); settings: 10 μM free compound, L-363 lysate
T2 sequence (Q9UHD2 1-729): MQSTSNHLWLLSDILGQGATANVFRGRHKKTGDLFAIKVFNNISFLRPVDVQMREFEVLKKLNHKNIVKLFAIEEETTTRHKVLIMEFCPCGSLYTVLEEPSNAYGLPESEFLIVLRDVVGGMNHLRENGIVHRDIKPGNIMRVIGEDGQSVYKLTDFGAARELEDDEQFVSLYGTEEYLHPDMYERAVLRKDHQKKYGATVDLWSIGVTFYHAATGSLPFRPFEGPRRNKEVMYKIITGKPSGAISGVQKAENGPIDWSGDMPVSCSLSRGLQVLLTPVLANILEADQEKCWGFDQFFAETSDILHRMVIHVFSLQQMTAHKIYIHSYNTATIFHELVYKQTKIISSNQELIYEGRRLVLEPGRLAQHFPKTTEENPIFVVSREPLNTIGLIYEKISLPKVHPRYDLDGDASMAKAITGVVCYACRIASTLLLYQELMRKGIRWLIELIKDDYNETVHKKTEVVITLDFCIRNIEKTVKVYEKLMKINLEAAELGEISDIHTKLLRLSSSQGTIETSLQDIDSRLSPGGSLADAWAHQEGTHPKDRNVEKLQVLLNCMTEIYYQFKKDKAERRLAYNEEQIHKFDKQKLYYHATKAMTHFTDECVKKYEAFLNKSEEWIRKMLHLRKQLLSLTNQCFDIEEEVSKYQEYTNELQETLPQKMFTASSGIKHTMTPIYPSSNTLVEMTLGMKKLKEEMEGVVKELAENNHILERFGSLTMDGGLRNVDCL
Experimental: as §1, with “8).” for “10).”
For this experiment the human plasma cell leukaemia line L-363 was used (German Collection of Microorganisms and Cell Cultures, DSMZ number ACC49, Braunschweig, Germany). Cells were treated for three hours with 20 μM of the proteasome inhibitor MG132 (Z-Leu-Leu-Leu-al, Sigma C2211) prior to cell harvesting.

MLK3, sequence (Q16584 whole entry): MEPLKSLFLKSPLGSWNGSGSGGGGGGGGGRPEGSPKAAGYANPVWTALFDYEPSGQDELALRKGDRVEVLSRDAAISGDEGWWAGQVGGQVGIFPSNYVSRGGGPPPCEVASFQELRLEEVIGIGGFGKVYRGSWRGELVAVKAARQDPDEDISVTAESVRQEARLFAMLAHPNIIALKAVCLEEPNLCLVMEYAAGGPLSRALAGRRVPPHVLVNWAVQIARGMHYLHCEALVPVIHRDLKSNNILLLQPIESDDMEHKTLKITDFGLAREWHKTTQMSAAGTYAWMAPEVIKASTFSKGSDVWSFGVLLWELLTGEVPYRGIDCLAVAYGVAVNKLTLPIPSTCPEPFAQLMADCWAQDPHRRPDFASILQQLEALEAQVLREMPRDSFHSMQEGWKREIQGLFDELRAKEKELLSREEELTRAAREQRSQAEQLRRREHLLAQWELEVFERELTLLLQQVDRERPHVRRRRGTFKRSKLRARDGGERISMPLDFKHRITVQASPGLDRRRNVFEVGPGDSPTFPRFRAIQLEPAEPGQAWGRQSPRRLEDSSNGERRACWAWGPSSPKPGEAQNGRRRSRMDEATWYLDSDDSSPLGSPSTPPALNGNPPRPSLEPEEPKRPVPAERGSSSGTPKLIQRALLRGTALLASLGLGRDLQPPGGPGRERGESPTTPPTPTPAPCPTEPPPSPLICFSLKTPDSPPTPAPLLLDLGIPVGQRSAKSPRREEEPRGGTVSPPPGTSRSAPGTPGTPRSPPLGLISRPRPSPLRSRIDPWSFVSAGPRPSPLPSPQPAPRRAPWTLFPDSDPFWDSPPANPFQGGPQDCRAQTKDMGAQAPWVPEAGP

SMILES: CS(=O)(=O)Nc1ccccc1Nc1nc(Nc2cccc(OCCN)c2)ncc1Cl [CZC31326, N-(2-(2-(3-(2-aminoethoxy)phenylamino)-5-chloropyrimidin-4-ylamino)phenyl)methanesulfonamide]
- Competition % (MLK3): 93.8%
- inhibition at 10 µM (GCK): 93.8%
- inhibition at 10 µM (TBK1): 95.8%
